In US12478624B2, “Heterocyclic derivatives, pharmaceutical compositions and their use in the treatment or amelioration of cancer” (Tolremo Therapeutics AG, priority 2019, dated 2025):
pEC50: −log10 of the molar value.

How the values were obtained:
OPM-2 = assay: Assay 2: multiple myeloma cellular efficacy, PrestoBlue cell proliferation/survival; format: cell-based; settings: Homo sapiens, 96 h, OPM-2 cells, 4 days
Description: Multiple Myeloma Cellular Efficacy:
10000 OPM-2 (ACC50; DSMZ) were plated into wells of a 384 well plate (Greiner 781090). Cells were treated for 4 days with a dose range of compound or vehicle. At the end of the experiment cells were stained directly with PrestoBlue (ThermoFisher Scietific; A13262) for 2 hours at 37° C. in a humidified incubator according to manufactor's instruction. To assess the relative cell number the PrestoBlue signal was measured using either a TecanM1000Pro reader or a Tecan Sparks reader following the manufactor's instructions. Background (no cells) values were subtracted and set in relation to the vehicle control. To assess the EC50 of each compound the relative fluorescence value was plotted against the compound concentration after log transformation. Data were fitted in a nonlinear manner with a variable slope (four parameters) using graphpad prism software. Cellular efficacy of compounds was evaluated in the multiple myeloma cell line OPM-2 using the cell proliferation/survival assay PrestoBlue. EC50 values are classified as indicated below.

A375 cells = assay: Assay 1: A375 cells treated with S1152, S1008 and compound, immunofluorescence (sc-365823) signal; format: cell-based; settings: 1 μM S1152 + 0.5 μM S1008, one day
Procedure, shortened: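 A375 cells treated one day with 1 μM S1152, 0.5 μM S1008 and compound dose ranges in DMEM/10% FCS, then fixed, permeabilised and immunostained. Green signal normalised to nuclear counterstain (ethidium-type or DAPI), log ratio fitted by four-parameter regression for EC50.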

pEC50 (A375 cells)	SMILES	pEC50 (OPM-2)
> 6.70	CC(=O)Nc1cccc(Nc2cc(-c3cccnc3)nc([C@@H]3CC[C@H](C)N(C(C)=O)C3)n2)c1 [Compound 00054, N-(3-((2-((3R,6S)-1-acetyl-6-methylpiperidin-3-yl)-6-(pyridin-3-yl)pyrimidin-4-yl)amino)phenyl)acetamide]	> 6.70
> 6.70	COc1cc(Nc2cc(-c3cccnc3)nc([C@@H]3CC[C@H](C)N(C(C)=O)C3)n2)cc(C)n1 [Compound 00140, 1-((2S,5R)-5-(4-((2-methoxy-6-methylpyridin-4-yl)amino)-6-(pyridin-3-yl)pyrimidin-2-yl)-2-methylpiperidin-1-yl)ethan-1-one]	> 6.70
> 6.70	CC(=O)N1C[C@H](c2nc(Nc3cccc(F)c3)cc(-c3cccnc3)n2)CC[C@@H]1C [Compound 00080, 1-((2S,5R)-5-(4-((3-fluorophenyl)amino)-6-(pyridin-3-yl)pyrimidin-2-yl)-2-methylpiperidin-1-yl)ethan-1-one]	6.00 to 6.70
6.00 to 6.70	CC(=O)Nc1cc(Nc2cc(-c3cnccn3)nc([C@@H]3CC[C@H](C)N(C(C)=O)C3)n2)ccn1 [Compound 00137, N-(4-((2-((3R,6S)-1-acetyl-6-methylpiperidin-3-yl)-6-(pyrazin-2-yl)pyrimidin-4-yl)amino)pyridin-2-yl)acetamide]	5.00 to 6.00
> 6.70	CC(=O)N1C[C@H](c2nc(Nc3cccc(C(C)(F)F)c3)cc(-c3cccnc3)n2)CC[C@@H]1C [Compound 00058, 1-((2S,5R)-5-(4-((3-(1,1-difluoroethyl)phenyl)amino)-6-(pyridin-3-yl)pyrimidin-2-yl)-2-methylpiperidin-1-yl)ethan-1-one]	6.00 to 6.70
> 6.70	COc1cc(Nc2cc(-c3cccnc3)nc([C@@H]3CC[C@H](C)N(C(C)=O)C3)n2)ccn1 [Compound 00139, 1-((2S,5R)-5-(4-((2-methoxypyridin-4-yl)amino)-6-(pyridin-3-yl)pyrimidin-2-yl)-2-methylpiperidin-1-yl)ethan1-one]	> 6.70
> 6.70	CC(=O)N1C[C@H](c2nc(Nc3ccnc(C)c3)cc(-c3cccnc3)n2)CC[C@@H]1C [Compound 00095, 1-((2S,5R)-2-methyl-5-(4-((2-methylpyridin-4-yl)amino)-6-(pyridin-3-yl)pyrimidin-2-yl)piperidin-1-yl)ethan-1-one]	> 6.70
> 6.70	CC(=O)N1C[C@H](c2nc(Nc3cncc(C(F)(F)F)c3)cc(-c3cccnc3)n2)CC[C@@H]1C [Compound 00124, 1-((2S,5R)-2-methyl-5-(4-(pyridin-3-yl)-6-((5-(trifluoromethyl)pyridin-3-yl)amino)pyrimidin-2-yl)piperidin 1-yl)ethan-1-one]	6.00 to 6.70
> 6.70	CC(=O)N1C[C@H](c2nc(Nc3cc(C)nc(C(F)F)c3)cc(-c3cccnc3)n2)CC[C@@H]1C [Compound 00144, 1-((2S,5R)-5-(4-((2-(difluoromethyl)-6-methylpyridin-4-yl)amino)-6-(pyridin-3-yl)pyrimidin-2-yl)-2-methylpiperidin-1-yl)ethan-1-one]	> 6.70
> 6.70	CC(=O)N1C[C@H](c2nc(Nc3cccc(-n4cnnn4)c3)cc(-c3cccnc3)n2)CC[C@@H]1C [Compound 00063, 1-((2S,5R)-5-(4-((3-(1H-tetrazol-1-yl)phenyl)amino)-6-(pyridin-3-yl)pyrimidin-2-yl)-2-methylpiperidin-1-yl)ethan-1-one]	6.00 to 6.70

The next lines start with the molecule.

SMILES	pEC50 (A375 cells)	pEC50 (OPM-2)
CC(=O)N1C[C@H](c2nc(Nc3cc(C)nc(-c4cnn(C)c4)c3)cc(-c3cccnc3)n2)CC[C@@H]1C [Compound 00161, 1-((2S,5R)-2-methyl-5-(4-((2-methyl-6-(1-methyl-1H-pyrazol-4-yl)pyridin-4-yl)amino)-6-(pyridin-3-yl)pyrimidin-2-yl)piperidin-1-yl)ethan-1-one]	> 6.70	> 6.70
CC(=O)N1C[C@H](c2nc(Nc3cc(F)ccn3)cc(-c3cnccn3)n2)CC[C@@H]1C [Compound 00156, 1-((2S,5R)-5-(4-((4-fluoropyridin-2-yl)amino)-6-(pyrazin2-yl)pyrimidin-2-yl)-2-methylpiperidin-1-yl)ethan-1-one]	6.00 to 6.70	6.00 to 6.70
CC(=O)N1C[C@H](c2nc(Nc3ccnc(-c4cnn(C5CCOCC5)c4)c3)cc(-c3cccnc3)n2)CC[C@@H]1C [Compound 00159, 1-((2S-5R)-2-methyl-5-(4-(pyridin-3-yl)-6-((2-(1-(tetrahydro-2H-pyran-4-yl)-1H-pyrazol-4-yl)pyridin-4-yl)amino)pyrimidin-2-yl)piperidin-1-yl)ethan-1-one]	> 6.70	> 6.70
CC(=O)N1C[C@H](c2nc(Nc3cc(F)cc(-c4cnn(C)c4)c3)cc(-c3cncc(OCCO)c3)n2)CC[C@@H]1C [Compound 00093, 1-((2S,5R)-5-(4-((3-fluoro-5-(1-methyl-1H-pyrazol-4-yl)phenyl)amino)-6-(5-(2-hydroxyethoxy)pyridin-3-yl)pyrimidin-2-yl)-2-methylpiperidin-1-yl)ethan-1-one]	> 6.70	> 6.70
CC(=O)N1C[C@H](c2nc(Nc3ccnc(C)c3)cc(-c3cnccn3)n2)CC[C@@H]1C [Compound 000126]	> 6.70	> 6.70
CC(=O)Nc1cc(Nc2cc(-c3cnccn3)nc([C@@H]3CC[C@H](C)N(C(C)=O)C3)n2)cc(C(F)F)c1 [Compound 00059, N-(3-((2-((3R,6S)-1-acetyl-6-methylpiperidin-3-yl)-6-(pyrazin-2-yl)pyrimidin-4-yl)amino)-5-(difluoromethyl)phenyl)acetamide]	> 6.70	> 6.70
CC(=O)N1C[C@H](c2nc(Nc3ccnc(C)c3)cc(-c3cncc(N4CC(C(=O)N(C)C)C4)c3)n2)CC[C@@H]1C [Compound 00113, 1-(5-(2-((3R,6S)-1-acetyl-6-methylpiperidin-3-yl)-6-((2-methylpyridin-4-yl)amino)pyrimidin-4-yl)pyridin-3-yl)-N,N-dimethylazetidine-3-carboxamide]	5.00 to 6.00	5.00 to 6.00
CC(=O)N1C[C@H](c2nc(Nc3cccc4c3cnn4C)cc(-c3cnccn3)n2)CC[C@@H]1C [Compound 00049, 1-((2S,5R)-2-methyl-5-(4-((1-methyl-1H-indazol-4-yl)amino)-6-(pyrazin-2-yl)pyrimidin-2-yl)piperidin-1-yl)ethan-1-one]	> 6.70	> 6.70
CC(=O)N1C[C@H](c2nc(Nc3cc(C)nc(C(F)F)c3)cc(-c3cnccn3)n2)CC[C@@H]1C [Compound 00145, 1-((2S,5R)-5-(4-((2-(difluoromethyl)-6-methylpyridin-4-yl)amino)-6-(pyrazin-2-yl)pyrimidin-2-yl)-2-methylpiperidin-1-yl)ethan-1-one]	> 6.70	> 6.70
CC(=O)N1C[C@H](c2nc(Nc3ccnc(C)c3)cc(-c3cncc4c3cnn4C)n2)CC[C@@H]1C [Compound 00112, 1-((2S,5R)-2-methyl-5-(4-(1-methyl-1/7-pyrazolo[3,4-c]pyridin-4-yl)-6-((2-methylpyridin-4-yl)amino)pyrimidin-2-yl)piperidin-1-yl)ethan-1-one]	> 6.70	> 6.70
CC(=O)N1C[C@H](c2nc(Nc3ccnc(C(F)F)c3)cc(-c3cnccn3)n2)CC[C@@H]1C [Compound 00130, 1-((2S,5R)-5-(4-((2-(difluoromethyl)pyridin-4-yl)amino)-6-(pyrazin-2-yl)pyrimidin-2-yl)-2-methylpiperidin-1-yl)ethan-1-one]	> 6.70	> 6.70
CC(=O)N1C[C@H](c2nc(Nc3cccc(-c4noc(C)n4)c3)cc(-c3cnccn3)n2)CC[C@@H]1C [Compound 00064, 1-((2S,5R)-2-methyl-5-(4-((3-(5-methyl-1,2,4-oxadiazol-3-yl)phenyl)amino)-6-(pyrazin-2-yl)pyrimidin-2-yl)piperidin-1-yl)ethan-1-one]	> 6.70	> 6.70
CC(=O)N1C[C@H](c2nc(Nc3ccnc(-c4cnn(C5CC5)c4)c3)cc(-c3cccnc3)n2)CC[C@@H]1C [Compound 00157, 1-((2S,5R)-5-(4-((2-(1-cyclopropyl-1H-pyrazol-4-yl)pyridin-4-yl)amino)-6-(pyridin-3-yl)pyrimidin-2-yl)-2-methylpiperidin-1-yl)ethan-1-one]	> 6.70	> 6.70
CC(=O)N1C[C@H](c2nc(Nc3ccnc(C)c3)cc(-c3cncc(C)n3)n2)CC[C@@H]1C [Compound 00131, 1-((2S,5R)-2-methyl-5-(4-(6-methylpyrazin-2-yl)-6-((2-methylpyridin-4-yl)amino)pyrimidin-2-yl)piperidin-1-yl)ethan-1-one]	> 6.70	> 6.70
CC(=O)N1C[C@H](c2nc(Nc3ccnc(C)c3)cc(-c3cncc(N4C[C@@H]5C[C@H]4CO5)c3)n2)CC[C@@H]1C [Compound 00115, 1-((2S,5R)-5-(4-(5-((1S,4S)-2-oxa-5-azabicyclo[2.2.1]heptan-5-yl)pyridin-3-yl)-6-((2-methylpyridin-4-yl)amino)pyrimidin-2-yl)-2-methylpiperidin-1-yl)ethan-1-one]	> 6.70	6.00 to 6.70
CC(=O)N1C[C@H](c2nc(Nc3ccnc(C)c3)cc(-c3cc(C)cs3)n2)CC[C@@H]1C [Compound 00105, 1-((2S,5R)-2-methyl-5-(4-((2-methylpyridin-4-yl)amino)-6-(4-methylthiophen-2-yl)pyrimidin-2-yl)piperidin-1-yl)ethan-1-one]	> 6.70	6.00 to 6.70
